{"source": "patent US20220151952A1", "about": "(priority 2019, published 2022)", "origin": "cited, not measured here", "data": [{"substance": "cannabidiol [CBD]", "values": [{"measurement": "solubility in organic solvents", "setting": "organic solvents, such as oil", "value": "soluble"}, {"measurement": "solubility in water", "setting": "water", "value": "insoluble"}]}]}
